# In patent publication US20030119067A1, “PYK2 related products and methods” (Sugen, Inc., priority 1996, published 2003):
# Like-named read-outs stand apart in the source and are kept apart here.
# What was measured:
# Shc = test: Tyrosine phosphorylation of Shc in PC12 cells; format: cell-based, rat; conditions: for tyrosine phosphorylation of Shc induced by agonist: DMPP 100 μM, muscarine 1 mM, NGF 100 ng/ml
# Experimental: Tyrosine phosphorylation of Shc in response to bradykinin, carbachol, PMA and other stimuli was also measured. Quiescent PC12 cells were stimulated for 5 min at 37° C. with bradykinin (1 μM), carbachol (1 mM), KCl (75 mM), PMA (1.6 μM), NGF(100 ng/ml), or left unstimulated (−). The cells were also stimulated with carbachol (1 mM) or potassium chloride (75 mM) in the presence of 3 mM EGTA. Stimulations with DMPP (100 μM) or muscarine (1 mM) were preformed under the same conditions. […] The Shc proteins were immunoprecipitated with anti-Shc antibodies, the immunoprecipitates were resolved by SDS-PAGE (8%), transferred to nitrocellulose and immunoblotted with anti-phosphotyrosine antibodies.
# PYK2 = test: Tyrosine phosphorylation of PYK2 in PC12 cells (immunoprecipitation, anti-phosphotyrosine immunoblot); format: cell-based, rat; conditions: for tyrosine phosphorylation of PYK2: quiescent PC12 cells, carbachol 1 mM, KCl 75 mM, A23187 6 μM 15 min, bradykinin 1 μM, PMA 1.6 μM
# Kv1.2 channel [1] = test: Kv1.2 currents in Xenopus oocytes (two microelectrode voltage clamp); format: cell-based, Xenopus laevis
# Experimental: In vitro capped RNA transcripts of Kv1.2, PYK2 and PKN were synthesized from linearized plasmids DNA templates utilizing the […] mMACHINE kit (Ambion), following the supplier's protocols. The products of the transcription reaction (cRNAs) were diluted in RNAse-free water and stored at −70° C. Expression of the RNAs was done by injection of 50nl of RNA into defolliculated stage V and VI oocytes from Xenopus laevis (Iverson et al., J. Neurosc. 10, 2903-2916, 1990). The injected oocytes were incubated for 2-3 days at 20° C. in L15 solution (1:2 dilution of Gibco's Leibovitz L15 medum in H20, with 50 U/ml nystatin, 0.1 mg/ml gentamycin, 30 mM HEPES buffer, pH 7.3-7.4, filtered through a 0.45 mm membrane) Electrophysiological Recording and analysis. Ionic currents were recorded with a two microelectrode voltage-clamp as described (Iverson et al., supra). The current were low-pass filtered KHz using an 8-pole Bessel filter and stored in a 80286 microcomputer using the pclamp acquisition system (Axon Instruments). The data was analyzed with the clamp fit pro-rams of the pCIamp system (Axon Instruments). All recording were performed at room temperature ([…]). The recording chamber was continually perfused with recording solution. To avoid contamination of the oocyte by Ca+^2-activated Cl^− currents low Cl^− recording solution was used (96 mM Na+, glutamate, 2 mM K^+ glutamate, 0.5 mM CaCl2, 5 mM MgCl2, 5 mM HEPES buffer). The K+ currents were elicited in depolarizinc, steps from −100 to +40 mv in 10 mV increments every 15 seconds.
# Kv1.2 currents from oocytes microinjected with either Kv1.2 mRNA, Kv1.2 and PYK2 mRNAs, or Kv1.2 and a kinase negative mutant of PYK2 mRNAs (PKN). Currents were elicited in response to depolarizing steps from −100 to +30 mV increments from a holding potential of −110 mV. Representative traces of Kv1.2 channels before and after bath application of 100 nM PMA at the annotated time (8 and 20 minutes) in the same cell.
# Suppression of Kv1.2 currents in response to PMA is blocked by a kinase negative PYK2 mutant (PKN). Inhibition of Kv1.2 currents in an oocyte microinjected with Kv1.2 mRNA before and 25 minutes after treatment with PMA at 50 nM or 100 nM concentration. Recordings from an oocyte expression Kv1.2 and PYK2 or Kv1.2 and a kinase negative mutant of PYK2 under the same conditions as described above. The same protocol was utilized in both experiments.
# We asked whether stimulation of PYK2 can suppress Kv1.2 currents. […] Stage V oocytes were microinjected either with Kv1.2 transcripts or with Kv1.2 together with PYK2 or PKN mRNAs. […] The expression of Kv1.2, PYK2 and PKN in the frog oocytes was confirmed by immunoblot analysis with anti-HA or anti-PYK2 antibodies.
# Kv1.2 potassium channel = test: Tyrosine phosphorylation of Kv1.2 in transfected 293 cells; format: cell-based, human; conditions: 293 cells co-expressing Kv1.2-HA and PYK2; PMA 1.6 μM, calcium ionophore 6 μM
# Kv1.2 channel [2] = conditions: oocytes, after 20 min incubation; as previously shown (Huang et al.); cited from earlier work
# PYK2 and Fak = test: Tyrosine phosphorylation of PYK2 and Fak in transfected 293 cells; format: cell-based, human; conditions: PMA 1.6 μM, calcium ionophore 6 μM
# Experimental: We examined the possibility whether PYK2 can tyrosine phosphorylate the Kv1.2 channel and regulate its function. In order to test this possibility, we expressed in 293 cells the Kv1.2 protein, Kv1.2 together with PYK2, and as a control Kv1.2 with a kinase negative PYK2 mutant (PKN) or with the protein tyrosine kinase Fak. The cells were grown for 24 hours in medium containing 0.2% serum and then stimulated with PMA(1.6 μM), calcium ionophore (6 μM), or left unstimulated.
# Immunoblotting analysis with phosphotyrosine anti-bodies following immunoprecipitation of PYK2, PKN and Fak by specific antibodies. […] The level of expression of the kinase negative mutant of PYK2 (PKN) was similar to the expression of wild type PYK2 or FAK. […] We next analyzed the tyrosine phosphorylation of Kv1.2 channel in each cell line.
# Embryonic human kidney 293 cells were transiently transfected with different combinations of mammalian expression vectors which direct the synthesis of Kv1.2-HA, PYK2, a kinase negative PYK2 (PKN) or the protein tyrosine kinase Fak. […]
# Tyrosine phosphorylation of each protein was analysed following immunoprecipitation and immunoblotting with anti-phosphotyrosine antibodies. The expression of each protein was determined by immunoblot analysis of total cell lysates from each transfection with anti-PYK2, anti-HA or anti-Fak antibodies.
# PYK-2 = test: Tyrosine phosphorylation of PYK-2 in NIH3T3 cells overexpressing PYK-2; format: cell-based; conditions: NIH3T3 cells overexpressing PYK-2 / PYK-2-HA; TPA 6 μM, 15 min, 37° C.
# Text: The PYK-2 cDNA cloned in pLSV was cotransfected with pSV2neo into PC12 cells and NIH3T3 in order to establish stable cell lines. G418 resistant colonies were screened by immunoprecipitating and immunoblotting.
# NIH3T3 cell lines were established that overexpress the PYK-2 and the PYK-2-HA protein. […] The level of phosphorylation is not so high.
# [3] = PC12 cells, 37° C., TPA 1.6 μM 15 min, bradykinin 1 μM 1 min, A23187 2 μM 15 min
# [4] = PC12 cells, pertussis toxin 100 ng/ml for 20 hours
compound,measurement,setting,value
"C[N+]1(C)CCN(c2ccccc2)CC1.[I-] [DMPP, 1,1-dimethyl-4-phenyl piperazinium iodide]",tyrosine phosphorylation of Shc induced by agonist,Shc,induced phosphorylation of Shc
"O=C(O)CN(CCOCCOCCN(CC(=O)O)CC(=O)O)CC(=O)O [EGTA, ethyleneglycol-bis (β-aminoethyl ether)-N,N,N′N′-tetraacetic acid]",effect on carbachol-induced tyrosine phosphorylation of PYK2,"PYK2; PC12 cells, EGTA 3 mM (elimination of extracellular calcium)",completely blocked agonist induced tyrosine phosphorylation of PYK2
same,effect on LPA-induced PYK2 phosphorylation,"PYK2; PC12 cells, medium containing 3 mM EGTA",did not affect
"[Cl-].[K+] [KCl, potassium chloride]",agonist-induced PYK2 tyrosine phosphorylation on omission of extracellular calcium,"PYK2; PC12 cells, no extracellular calcium or EGTA present",completely abolished PYK2 tyrosine phosphorylation
same,tyrosine phosphorylation of PYK2,PYK2; 37° C.,induces rapid tyrosine phosphorylation of PYK2
"CCCCCCCCCCCCCC(=O)O[C@@H]1[C@@H](C)[C@@]2(O)[C@@H](C=C(CO)C[C@]3(O)C(=O)C(C)=C[C@@H]23)[C@@H]2C(C)(C)[C@]12OC(C)=O [PMA, phorbol 12-myristate 13-acetate]",inhibition of outward current,"Kv1.2 channel [1]; oocytes coexpressing Kv1.2 and PYK2, 8 min after 100 nM PMA",95%
same,inhibition of outward current,"Kv1.2 channel [1]; oocytes expressing Kv1.2 alone, 8 min after 100 nM PMA",25%
same,effect on Kv1.2 currents,Kv1.2 channel [1]; oocytes treated with PMA,caused inhibition of Kv1.2 currents
same,effect on kinetics and voltage dependence of remaining Kv1.2 currents,"Kv1.2 channel [1]; oocytes, absence or presence of PYK2 expression",did not result in changes in both the kinetics or voltage dependence of the remaining currents
same,tyrosine phosphorylation of Kv1.2,Kv1.2 potassium channel,enhanced
same,inhibition of Kv1.2 currents,Kv1.2 channel [2],80-90%
same,agonist-induced PYK2 tyrosine phosphorylation after prolonged PMA treatment (PKC down-regulation),PYK2; PC12 cells pretreated with 100 nM PMA for 12 h,completely abolished the effect of PMA
same,tyrosine phosphorylation of PYK-2 in response to the stimulus alone,PYK2; [3],undergoes tyrosine phosphorylation
same,increase in the phosphorylation state of PYK2 relative to unstimulated cells,"PYK2; PC12 cells, LPA 2.5 mM, bradykinin 1 mM 3 min, PMA 1 mM 10 min, 37° C.",12 fold
same,tyrosine phosphorylation of PYK2,PYK2; 37° C.,induced tyrosine phosphorylation of PYK2
same,tyrosine phosphorylation of PYK2 and Fak,PYK2 and Fak,induced tyrosine phosphorylation
CN1[C@@H]2CC[C@H]1C[C@@H](OC(=O)C(CO)c1ccccc1)C2 (some centres unmarked) [atropine],effect of antagonist on carbachol-induced tyrosine phosphorylation of Shc,Shc,had no effect
CNc1ccc2oc(C[C@H]3O[C@@]4(CC[C@H]3C)O[C@H]([C@H](C)C(=O)c3ccc[nH]3)[C@H](C)C[C@H]4C)nc2c1C(=O)O [calcium ionophore A23187],tyrosine phosphorylation of Kv1.2,Kv1.2 potassium channel,enhanced
same,tyrosine phosphorylation of PYK-2 in response to the stimulus alone,PYK2; [3],undergoes tyrosine phosphorylation
same,tyrosine phosphorylation of PYK2,PYK2; 37° C.,phosphorylated on tyrosine residues
same,tyrosine phosphorylation of PYK2 and Fak,PYK2 and Fak,induced a weaker response
C[N+](C)(C)CCOC(N)=O [carbachol],time of maximum tyrosine phosphorylation of Shc,Shc; 1 mM carbachol time course,one
same,dependence of agonist-induced tyrosine phosphorylation of Shc on extracellular calcium,Shc; 3 mM EGTA,dependent on the presence of extracellular calcium
same,time after applying the agonist at which PYK2 became phosphorylated on tyrosine,"PYK2; PC12 cells, carbachol",5 s
same,tyrosine phosphorylation of PYK2,PYK2; 37° C.,"induces strong, tyrosine phosphorylation of PYK2"
CNC1(C)C2CCC(C2)C1(C)C (centres unmarked) [mecamylamine],effect of antagonist on carbachol-induced tyrosine phosphorylation of Shc,Shc,blocked the effect of carbachol
C[C@@H]1O[C@H](C[N+](C)(C)C)C[C@H]1O [muscarine],tyrosine phosphorylation of Shc induced by agonist,Shc,had no effect
Cholera toxin,effect on the TPA / bradykinin PYK-2 phosphorylation response in combination,PYK2,gave higher signal in combination with TPA and bradykinin
same,tyrosine phosphorylation of PYK-2 in response to the stimulus alone,PYK2,didn't cause phosphorylation of PYK-2 alone
EGF: growth factor used to stimulate NIH3T3 cells,tyrosine phosphorylation of PYK-2,PYK-2,undergoes tyrosine phosphorylation
NGF: nerve growth factor,tyrosine phosphorylation of Shc induced by agonist,Shc,induced persistent stimulation of Shc phosphorylation
same,duration of stimulation of Shc phosphorylation after addition,Shc; NGF,five
PDGF,tyrosine phosphorylation of PYK-2,PYK-2,undergoes tyrosine phosphorylation
aFGF: growth factor used to stimulate NIH3T3 cells,tyrosine phosphorylation of PYK-2,PYK-2,undergoes tyrosine phosphorylation
pertussis toxin,effect on the TPA / bradykinin PYK-2 phosphorylation response in combination,PYK2,induced the response of TPA and bradykinin
same,tyrosine phosphorylation of PYK-2 in response to the stimulus alone,PYK2; [3],didn't cause any response alone
same,effect of pretreatment on LPA-induced tyrosine phosphorylation of PYK2,PYK2; [4],significantly inhibited
same,effect of pretreatment on bradykinin or PMA induced activation of PYK2,PYK2; [4],not affected
